{
  "source": "patent US9051345B2",
  "about": "“Metalloinsertor complexes targeted to DNA mismatches” (CALIFORNIA INSTITUTE OF TECHNOLOGY, priority 2011, dated 2015)",
  "format_in_all_cases": "cell-based, human",
  "key": {"[1]": {"test_system": "HCT116N and HCT116O cells", "test": "Cell cycle distribution flow cytometry assay (PI)", "details": "20 μM, 24 and 48 hours", "method": "Cells were harvested from adherent culture by trypsinization and washed with cold PBS. The resultant pellet was resuspended in PBS (chilled to 4° C.), and ice-cold ethanol was added dropwise to a final concentration of 70% (v/v), with continuous gentle agitation. Cells were fixed at 4° C. for 30 minutes and stored for up to one week. Prior to analysis, the fixed cells in 70% ethanol were diluted 1:3 in cold PBS and centrifuged at 1,400×g for 5 minutes. The resultant pellet was washed twice and resuspended in ice-cold PBS. Ribonuclease was added to a final concentration of 30 μg/mL and the cells were incubated overnight at 4° C. The next day propidium iodide was added to a final concentration of 20 μg/mL and cells were analyzed by flow cytometry. Data analysis was performed using the FloJo software package (v 8.7.1)."}, "[2]": {"test_system": "HCT116N and HCT116O cells", "test": "ICP-MS assay for cellular rhodium levels, whole cell lysates", "details": "10 μM; 48 hours; compared to [Rh(bpy)2chrysi]^3+ or [Rh(NH3)4chrysi]^3+", "method": "To assay the subcellular localization of the rhodium complexes, an inductively coupled plasma mass spectrometry (ICP-MS) assay was used to quantify the uptake of the complexes in both whole cell extracts and nuclear and mitochondrial fractions.\nEach cell line was treated with 10 μM of each rhodium complex as indicated in FIG. 33A (except [Rh(DIP)2(chrysi]^3+ which was administered at 2 μM) for 1, 3, 6, 12, 24, or 48 hours. After rhodium incubation, the cells were harvested from adherent culture by trypsinization, washed with cold PBS, and counted by hemacytometer. The samples were pelleted and resuspended in 1% HNO3 (v/v), homogenized by three freeze/thaw cycles in liquid nitrogen, and analyzed for rhodium content on an HP-4500 ICP-MS unit. Rhodium counts were normalized to the number of cells counted in each sample before lysate preparation. Standard errors for three independent experiments are shown."}, "HCT116O cells": {"test_system": "HCT116O cells", "test": "Cell death mode flow cytometry assay (YO-PRO-1 / PI dye exclusion)", "details": "for mode of cell death: YO-PRO-1 and PI, HCT116O versus HCT116N", "source_text": "(§1) To characterize the cell death occurring in response to rhodium treatment, a dye exclusion flow cytometry assay was used as described in Idziorek et al., 1995 J. Immunol. Methods, 185, 249-258, the entire contents of which is incorporated herein by reference. The assay differentiates between live cells, dead cells, and cells undergoing apoptosis or necrosis through concurrent staining with propidium iodide (a dead cell permeable dye) and YO-PRO-1 (an apoptotic cell permeable dye). By plotting the fluorescence of the YO-PRO-1 channel against the PI channel, a pattern emerges. Healthy cells are seen in the lower lefthand corner of the plot in FIGS. 36A-36D. […] Dead cells admit both dyes and are therefore seen in the upper righthand quadrant of the image. Upon flow cytometry analysis, cells can be classified as live, apoptotic, necrotic, or dead by defining regions in the fluorescence plane corresponding to each category.\n(§2) The HCT116N and HCT116O cell lines were incubated with 0-25 μM of [Rh(HDPA)2chrysi]^3+ for 24-72 hours. After harvesting the cells and staining with both PI and YO-PRO-1, the cells were analyzed by flow cytometry to obtain raw fluorescence data. Representative data for 20 μM rhodium treatment for 72 hours are shown. YO-PRO-1 fluorescence is shown on the y-axis, and PI fluorescence is shown on the x-axis. The raw data were analyzed by gating the fluorescence events into one of four categories, depending on the fluorescence levels of the two dyes. FIGS. 37A-37B also show histograms of live, apoptotic, necrotic, and dead cells for the HCT116N and HCT116O cell lines based on the flow cytometry. Treatment with the indicated rhodium complex was either 15 or 20 µM [Rh(HDPA)2chrysi]^3+ for 72 hours.\n(§3) After 24, 48, or 72 hour incubation with the selected rhodium complex, cells were harvested from adherent culture by trypsinization and washed with cold PBS, and centrifuged at 2,000 rpm for 5 minutes. The resultant pellets were resuspended in PBS to a concentration of 10^6 cells/mL and stained with propidium iodide to a final concentration of 1 μg/mL and with YO-PRO-1 (an apoptotic cell permeable dye) to a final concentration of 200 nM for 30 minutes prior to analysis by flow cytometry."}, "HCT116N cells": {"test_system": "HCT116N cells", "test": "Cell death mode flow cytometry assay (YO-PRO-1 / PI dye exclusion)", "details": "20 μM, 72 hours, untreated 62±0.6%", "source_text": "as §1, §2, §3"}},
  "data": [
    {"substance": "[Rh(HDPA)2chrysi]^3+", "values": [
      {"measurement": "effect on the cell cycle", "setting": "[1]", "result": "disruption of the cell cycle"},
      {"measurement": "cellular uptake (rhodium accumulation in whole cell lysates)", "setting": "[2]", "result": "increase in cellular uptake"},
      {"measurement": "live cells HCT116O after treatment", "setting": "HCT116O cells; 20 μM, 72 hours, untreated 79±3.8%", "result": "37±5.3", "unit": "%"},
      {"measurement": "mode of cell death", "setting": "HCT116O cells", "result": "induces necrosis preferentially in the MMR-deficient HCT116O cell line"},
      {"measurement": "mode of cell death", "setting": "HCT116O cells; listed as [Rh(HDPA)2chrysi]3^+", "result": "necrotic rather than apoptotic pathway"},
      {"measurement": "change in percentage of cells in the apoptotic region", "setting": "HCT116O cells; either cell line", "result": "no significant change"},
      {"measurement": "live cells HCT116N after treatment", "setting": "HCT116N cells", "result": "54±5.1", "unit": "%"}
    ]}
  ]
}
